# Biological target: T1, IRAK4 (Homo sapiens, UniProt Q9NWZ3)
# T1 sequence (Q9NWZ3 1-460): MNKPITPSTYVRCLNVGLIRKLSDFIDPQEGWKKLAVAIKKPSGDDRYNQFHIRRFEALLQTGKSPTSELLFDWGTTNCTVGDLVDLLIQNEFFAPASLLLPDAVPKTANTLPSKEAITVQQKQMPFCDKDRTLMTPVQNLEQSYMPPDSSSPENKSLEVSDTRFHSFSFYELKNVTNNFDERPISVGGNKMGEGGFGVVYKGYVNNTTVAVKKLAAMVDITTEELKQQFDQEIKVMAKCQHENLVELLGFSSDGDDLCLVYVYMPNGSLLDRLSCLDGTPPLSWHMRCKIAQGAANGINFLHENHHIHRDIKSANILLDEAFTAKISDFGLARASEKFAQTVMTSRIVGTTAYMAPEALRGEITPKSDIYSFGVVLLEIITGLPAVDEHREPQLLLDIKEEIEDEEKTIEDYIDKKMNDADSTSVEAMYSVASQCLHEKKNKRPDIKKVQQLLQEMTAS
# Assay: IRAK-4 activity inhibition assay (Caliper)
# Type: biochemical
# Conditions: 37 μM ATP, 3.5 nM IRAK4
# Method: A 1× kinase base buffer was prepared from 50 mM HEPES, pH 7.5 and 0.0015% Brij-35. A stop buffer was prepared from 100 mM HEPES, pH 7.5, 0.015% Brij-35, 0.2% Coating Reagent #3, and 50 mM EDTA.
# Test compound was diluted to 50× of the final desired highest inhibitor concentration in reaction by 100% DMSO. 100 μl of this compound dilution was transferred to a well in a 96-well plate.
# Test compound was serially diluted by transferring 30 μl to 60 μl of 100% DMSO in the next well and so forth for a total of 10 concentrations. 100 μl of 100% DMSO was added to two empty wells for no compound control and no enzyme control in the same 96-well plate.
# A new 96-well plate was marked as intermediate plate. 5 μl of compound serial dilution was transferred from source plate to the corresponding wells of the intermediate plate. 45 μl of 1× kinase base buffer (KB buffer) was added to each well of the intermediate plate. The intermediate plate was placed for 10 min on a shaker.
# 5 μl of each well was transferred from the 96-well intermediate plate to a 384-well plate in duplicates. […] A2 of the 96-well plate is transferred to A3 and A4 of the 384-well plate, and so on.
# IRAK4 and DTT in 1× kinase base buffer was added.
# Assay plate already contained 5 μl of compound in 10% DMSO. Added 10 μl of 2.5× enzyme solution to each well of the 384-well assay plate, except no enzyme control wells. […] Added 10 μl of 1× kinase base buffer to no enzyme control wells in the assay plate. Incubated at room temperature for 10 min.
# Added 10 μl of 2.5× peptide solution to each well of the 384-well assay plate. […] Incubated at 28° C. for 40 minutes. Added 25 μl of stop buffer to stop reaction. Collected data on Caliper.
# Copied conversion % data from Caliper program. Converted conversion % values to percent inhibition values. Percent inhibition=(max−conversion %)/(max−min)*100, where “max” means the conversion % of DMSO control and “min” means the conversion % of no enzyme control.
# The compound numbers correspond to the compound numbers in Table 1. […] “NA” stands for “not assayed.”
row,SMILES,IC50
1,"COCCC1CCc2sc3ncnc(O[C@H]4CC[C@H](N(C)C)CC4)c3c21 (some centres unmarked) [Compound I-32, 4-[[3-(2-methoxyethyl)-7-thia-9,11-diazatricyclo[6.4.0.0[2,6]]dodeca-1(8),2(6),9,11-tetraen-12-yl]oxy]-N,N-dimethylcyclohexan-1-amine]",< 5 µM
2,"C/C=C/COC[C@H]1CCc2sc3ncnc(O[C@H]4CC[C@H](N(C)C)CC4)c3c21 [Compound I-59, 4-[[(3S)-3-[[(2E)-but-2-en-1-yloxy]methyl]-7-thia-9,11-diazatricyclo[6.4.0.0[2,6]]dodeca-1(8),2(6),9,11-tetraen-12-yl]oxy]-N,N-dimethylcyclohexan-1-amine]",< 5 µM
3,"CN(C)[C@H]1CC[C@H](Oc2ncnc3sc4c(c23)[C@H](CC(=O)Nc2ccc(F)cn2)CC4)CC1 [Compound I-38, 2-[(3S)-12-[[4-(dimethylamino)cyclohexyl]oxy]-7-thia-9,11-diazatricyclo[6.4.0.0[2,6]]dodeca-1(8),2(6),9,11-tetraen-3-yl]-N-(5-fluoropyridin-2-yl)acetamide]",20 to 50 µM
4,"NC(=O)C[C@H]1CCc2sc3ncnc(N[C@H]4CC[C@H](N5CCOCC5)CC4)c3c21 [Compound I-97, 2-[(3R)-12-[[4-(morpholin-4-yl)cyclohexyl]amino]-7-thia-9,11-diazatricyclo[6.4.0.0̂[2,6]]dodeca-1(12),2(6),8,10-tetraen-3-yl]acetamide]",< 5 µM
5,"OCC[C@H]1CCc2sc3ncnc(O[C@H]4CC[C@H](N5CCOCC5)CC4)c3c21 [Compound I-66, 2-[(3R)-12-[[4-(morpholin-4-yl)cyclohexyl]oxy]-7-thia-9,11-diazatricyclo[6.4.0.0[2,6]]dodeca-1(12),2(6),8,10-tetraen-3-yl]ethan-1-ol]",< 5 µM
6,"CN[C@H]1CC[C@H](Oc2ncnc3sc4c(c23)[C@@H](C[C@H](C#N)OC)CC4)CC1 [Compound I-81, (2R)-2-methoxy-3-[(3R)-12-[[4-(methylamino)cyclohexyl]oxy]-7-thia-9,11-diazatricyclo[6.4.0.0[2,6]]dodeca-1(8),2(6),9,11-tetraen-3-yl]propanenitrile]",5 to 20 µM
7,"C[C@@H](O)C[C@H]1CCc2sc3ncnc(O[C@H]4CC[C@H](N5CCOCC5)CC4)c3c21 [Compound I-82, (R)-1-((R)-4-(((1r,4R)-4-morpholinocyclohexyl)oxy)-6,7-dihydro-5H-cyclopenta[4,5]thieno[2,3-d]pyrimidin-5-yl)propan-2-ol]",< 5 µM
8,"NC(=O)CC[C@H]1CCc2sc3ncnc(O[C@H]4CC[C@H](N5CCOCC5)CC4)c3c21 [Compound I-84, 3-((S)-4-(((1r,4S)-4-morpholinocyclohexyl)oxy)-6,7-dihydro-5H-cyclopenta[4,5]thieno[2,3-d]pyrimidin-5-yl)propanamide]",< 5 µM
9,"CN(CCO)C(=O)C1CCc2sc3ncnc(N[C@H]4CC[C@H](N(C)C)CC4)c3c21 (some centres unmarked) [Compound I-29, 12-[[4-(dimethylamino)cyclohexyl]amino]-N-(2-hydroxyethyl)-N-methyl-7-thia-9,11-diazatricyclo[6.4.0.0̂[2,6]]dodeca-1(12),2(6),8,10-tetraene-3-carboxamide]",> 50 µM
10,"CN(C)[C@H]1CC[C@H](Nc2ncnc3sc4c(c23)[C@@H](CC(N)=O)CC4)CC1 [Compound I-99, 2-[(3R)-12-[[4-(dimethylamino)cyclohexyl]amino]-7-thia-9,11-diazatricyclo[6.4.0.0[2,6]]dodeca-1(12),2(6),8,10-tetraen-3-yl]acetamide]",< 5 µM
11,"CN(C)[C@H]1CC[C@H](Oc2ncnc3sc4c(c23)[C@@H](C[C@H](O)C2CCCO2)CC4)CC1 (stereo partly drawn) [Compound I-89, (1S)-2-((R)-4-(((1r,4R)-4-(dimethylamino)cyclohexyl)oxy)-6,7-dihydro-5H-cyclopenta[4,5]thieno[2,3-d]pyrimidin-5-yl)-1-(tetrahydrofuran-2-yl)ethanol]",< 5 µM
12,"CN(C)[C@H]1CC[C@H](Oc2ncnc3sc4c(c23)[C@@H](C[C@H](O)C(N)=O)CC4)CC1 [Compound I-74, (2S)-3-[(3R)-12-[[4-(dimethylamino)cyclohexyl]oxy]-7-thia-9,11-diazatricyclo[6.4.0.0̂[2,6]]dodeca-1(8),2(6),9,11-tetraen-3-yl]-2-hydroxypropanamide]",< 5 µM
13,"CN(C)[C@H]1CC[C@H](Nc2ncnc3sc4c(c23)C(CCO)CC4)CC1 (some centres unmarked) [Compound I-12, 2-(4-(((1r,4r)-4-(dimethylamino)cyclohexyl)amino)-6,7-dihydro-5H-cyclopenta[4,5]thieno[2,3-d]pyrimidin-5-yl)ethanol]",< 5 µM
14,"CN(C)[C@H]1CC[C@H](Nc2ncnc3sc4c(c23)C(CC(N)=O)CC4)CC1 (some centres unmarked) [Compound I-13, 2-(4-(((1r,4r)-4-(dimethylamino)cyclohexyl)amino)-6,7-dihydro-5H-cyclopenta[4,5]thieno[2,3-d]pyrimidin-5-yl)acetamide]",< 5 µM

# Other lines, results leading:
row,IC50,SMILES
1,< 5 µM,"CN[C@H]1CC[C@H](Oc2ncnc3sc4c(c23)[C@@H](C[C@H]2NC(=O)NC2=O)CC4)CC1 [Compound I-159, (5R)-5-[[(3R)-12-[[4-(methylamino)cyclohexyl]oxy]-7-thia-9,11-diazatricyclo[6.4.0.0[2,6]]dodeca-1(8),2(6),9,11-tetraen-3-yl]methyl]imidazolidine-2,4-dione]"
2,5 to 20 µM,"CN(C)[C@H]1CC[C@H](Oc2ncnc3sc4c(c23)CN(C(=O)CC2CC2)CC4)CC1 [Compound I-170, 2-cyclopropyl-1-(3-[[4-(dimethylamino)cyclohexyl]oxy]-8-thia-4,6,12-triazatricyclo[7.4.0.0̂[2,7]]trideca-1(9),2(7),3,5-tetraen-12-yl)ethan-1-one]"
3,< 5 µM,"CN(C)[C@H]1CC[C@H](Oc2ncnc3sc4c(c23)CN(S(=O)(=O)CCO)CC4)CC1 [Compound I-209, 2-(3-[[4-(dimethylamino)cyclohexyl]oxy]-8-thia-4,6, 12-triazatricyclo[7.4.0.0[2,7]]trideca-1(9),2,4,6-tetraene-12-sulfonyl)ethan-1-ol]"
4,< 5 µM,"CN(C1COC1)[C@H]1CC[C@H](Oc2ncnc3sc4c(c23)[C@@H](CC(N)=O)CC4)CC1 [Compound I-129, 2-((R)-4-(((1r,4R)-4-(methyl(oxetan-3-yl)amino)cyclohexyl)oxy)-6,7-dihydro-5H-cyclopenta[4,5]thieno[2,3-d]pyrimidin-5-yl)acetamide]"
5,< 5 µM,"OC[C@H]1CCc2sc3ncnc(O[C@H]4CC[C@H](N5CCOCC5)CC4)c3c2C1 [Compound I-216, [(12S)-3-[[4-(morpholin-4-yl)cyclohexyl]oxy]-8-thia-4,6-diazatricyclo[7.4.0.0[2,7]]trideca-1(9),2(7),3,5-tetraen-12-yl]methanol]"
6,20 to 50 µM,"NC(=O)C[C@H]1CCc2sc3ncnc(O[C@H]4CC[C@H](N5CCNC(=O)C5)CC4)c3c21 [Compound I-158, 2-((R)-4-(((1r,4R)-4-(3-oxopiperazin-1-yl)cyclohexyl)oxy)-6,7-dihydro-5H-cyclopenta[4,5]thieno[2,3-d]pyrimidin-5-yl)acetamide]"
7,< 5 µM,"COCCN(CCOC)[C@H]1CC[C@H](Oc2ncnc3sc4c(c23)[C@@H](CC(N)=O)CC4)CC1 [Compound I-134, 2-[(3R)-12-([4-[bis(2-methoxyethyl)amino]cyclohexyl]oxy)-7-thia-9,11-diazatricyclo[6.4.0.0[2,6]]dodeca-1(12),2(6),8,10-tetraen-3-yl]acetamide]"
8,< 5 µM,"NC(=O)C[C@H]1CCc2sc3ncnc(O[C@H]4CC[C@H](N5CCN(Cc6ccccc6)CC5)CC4)c3c21 [Compound I-122, 2-[(3R)-12-[[4-(4-benzylpiperazin-1-yl)cyclohexyl]oxy]-7-thia-9,11-diazatricyclo[6.4.0.0[2,6]]dodeca-1(12),2(6),8,10-tetraen-3-yl]acetamide]"
9,< 5 µM,"CN[C@H]1CC[C@H](Oc2ncnc3sc4c(c23)[C@@H](CCC(N)=O)CCC4)CC1 [Compound I-162, 3-((R)-4-(((1r,4R)-4-(methylamino)cyclohexyl)oxy)-5,6,7,8-tetrahydrobenzo[4,5]thieno[2,3-d]pyrimidin-5-yl)propanamide]"

# From patent US20160193216A1 (Nimbus Iris, Inc., priority 2012, published 2016)
